# Assay results: patent publication US20240210412A1, “SULFONYL-TRIAZOLE COMPOUNDS USEFUL AS LIGANDS AND INHIBITORS OF PROSTAGLANDIN REDUCTASE 2” (University of Virginia Patent Foundation, priority 2021, published 2024)
# Legend:
# P25205 = molecular target: T1, P25205 (Homo sapiens, UniProt P25205); assay: SILAC LC-MS ABPP; type: cell-based; conditions: 25 μM 2 h, live DM93 cells
# T1 construct: Probe-modified proteins from the soluble fraction were conjugated to a desthiobiotin-azide tag; endogenous in cells; host or cells: DM93 (SILAC)
# T1 sequence (P25205 1-808): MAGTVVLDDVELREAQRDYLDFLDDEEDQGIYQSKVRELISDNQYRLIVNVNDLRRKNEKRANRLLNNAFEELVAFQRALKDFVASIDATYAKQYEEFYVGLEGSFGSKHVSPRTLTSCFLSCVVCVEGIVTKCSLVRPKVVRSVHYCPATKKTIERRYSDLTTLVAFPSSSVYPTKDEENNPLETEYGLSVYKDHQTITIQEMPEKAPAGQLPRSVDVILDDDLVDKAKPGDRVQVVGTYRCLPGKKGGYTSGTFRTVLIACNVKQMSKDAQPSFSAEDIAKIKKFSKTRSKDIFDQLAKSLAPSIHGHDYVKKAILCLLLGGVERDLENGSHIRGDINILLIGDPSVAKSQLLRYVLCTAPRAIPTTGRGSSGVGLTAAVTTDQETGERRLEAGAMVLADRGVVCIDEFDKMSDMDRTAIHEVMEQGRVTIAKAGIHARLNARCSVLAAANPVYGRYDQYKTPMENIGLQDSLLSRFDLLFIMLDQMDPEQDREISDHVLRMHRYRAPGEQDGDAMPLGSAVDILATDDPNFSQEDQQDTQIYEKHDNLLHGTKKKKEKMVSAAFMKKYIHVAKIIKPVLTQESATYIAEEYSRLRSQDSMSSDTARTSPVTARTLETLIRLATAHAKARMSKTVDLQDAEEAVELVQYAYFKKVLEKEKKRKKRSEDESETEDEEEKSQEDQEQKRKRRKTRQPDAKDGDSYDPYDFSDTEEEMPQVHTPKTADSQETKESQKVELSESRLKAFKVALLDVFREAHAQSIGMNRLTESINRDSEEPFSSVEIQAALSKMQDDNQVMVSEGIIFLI
# Experimental: (§1) Cells were grown to 90-95% confluence before being washed once with warm, sterile DPBS (1×, 5 mL), followed by addition of 10 mL of serum-free media (supplemented with 1% L-glutamine) containing either DMSO or SuTEx fragment (in DMSO) was added. Light cells were treated with DMSO vehicle while the heavy cells were treated with DMSO or SuTEx fragment (in DMSO) and incubated for 2 hrs. After 2 hrs, the cells were treated with SuTEx alkyne probe (HHS475, 10 μL of 1000× DMSO stock) and incubated for an additional 2 hrs. The media was aspirated and cells washed with cold PBS (5 mL) and harvested. Cells were spun at 500×g for 5 min at 4° C. followed by removal of supernatant. Pellets were resuspended in 1 mL of cold DPBS and spun at 1,400×g for 3 min at 4° C. followed by removal of supernatant. The cells were lysed in PBS by sonication and fractionated (100,000×g, 45 min, 4° C.).The light and heavy soluble fractions were diluted to 2.3 mg/mL in PBS and 432 μL were used for analysis (1 mg total protein). The probe-modified proteomes were conjugated to desthiobiotin-PEG3-azide (10 μl of 10 mM stock in DMSO; 200 μM final concentration) using TCEP (10 μl of fresh 50 mM stock in water, 1 mM final concentration), TBTA ligand (33 μl of a 1.7 mM 4:1 t-butanol/DMSO stock, 100 μM final concentration) and CuSO4 (10 μl of 50 mM stock, 1 mM final concentration). Samples were vortexed to mix and incubated for 1 hr at room temperature. The heavy and light proteomes were mixed 1:1 and the subsequent steps, including LC-MS/MS data analysis, were performed as previously described^[8a].
# (§2) Coupling cell-based screens with chemical proteomics can facilitate the identification of target protein and binding sites that engage and are irreversibly modified by covalent ligands^[12]. In these assays, covalent ligands block SuTEx activity-based probe (ABP) labeling at protein sites, and the competition of probe labeling can be used to quantify potency and selectivity across the proteome^[10a]. To facilitate quantitative chemical proteomics, DM93 melanoma cells were cultured using stable isotopic labeling by amino acids in cell culture (SILAC)^[13]. Cells cultured in “light” media were treated with dimethyl sulfoxide (DMSO) vehicle while cells cultured in “heavy” media were treated with SuTEx ligand (25 μM, 2 hours, 37° C.). Next, cells were treated with HHS-475 probe (100 μM, 2 hours, 37° C.) followed by lysis and processing of proteomes for analysis. Probe-modified proteins from the soluble fraction were conjugated to a desthiobiotin-azide tag by copper-catalyzed azide-alkyne cycloaddition (CuAAC)^[14] followed by mixing of the light and heavy proteomes. The combined proteomes were digested with trypsin protease to produce probe-modified peptides, followed by enrichment and purification by avidin affinity chromatography. Probe-modified peptides were resolved, identified, and quantified by high-resolution liquid chromatography-tandem mass spectrometry (LC-MS/MS). Resultant data were analyzed as previously described^[8a, 10a]. Table 2, below, lists sites of modification targeted by sulfonyl-triazole compounds HHS-0101, HHS-0201, HHS-0301, HHS-0401, and HHS-0701. The format of the table is as follows: protein Uniprot accession number (see uniprot.org); tyrosine site (amino acid position) modified; treatment (sulfonyl-triazole compound identification number, followed by Y (where if multiple compounds modify the same site, the compounds are separated by vertical lines).
# Q9ULV4 = molecular target: T2, Q9ULV4 (Homo sapiens, UniProt Q9ULV4); assay: SILAC LC-MS ABPP; type: cell-based; conditions: 25 μM 2 h, live DM93 cells
# T2 construct: endogenous in cells; host or cells: DM93 cells (SILAC)
# T2 sequence (Q9ULV4 whole entry): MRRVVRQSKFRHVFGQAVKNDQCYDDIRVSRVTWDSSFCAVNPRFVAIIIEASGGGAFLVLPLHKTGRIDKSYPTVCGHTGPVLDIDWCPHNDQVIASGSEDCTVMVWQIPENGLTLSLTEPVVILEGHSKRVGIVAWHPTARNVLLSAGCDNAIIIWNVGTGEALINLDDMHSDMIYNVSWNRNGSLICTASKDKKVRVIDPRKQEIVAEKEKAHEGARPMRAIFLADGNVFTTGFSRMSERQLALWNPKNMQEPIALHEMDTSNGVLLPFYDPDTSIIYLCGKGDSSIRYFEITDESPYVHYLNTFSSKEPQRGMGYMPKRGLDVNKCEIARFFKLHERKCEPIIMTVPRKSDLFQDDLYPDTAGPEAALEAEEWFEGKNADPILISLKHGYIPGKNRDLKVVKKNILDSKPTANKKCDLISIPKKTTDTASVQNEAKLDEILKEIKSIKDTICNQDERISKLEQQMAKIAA
# Experimental: as §1, §2
Compound,liganded tyrosine site 147 (P25205),liganded tyrosine site 301 (Q9ULV4),liganded tyrosine site 159 (P25205),liganded tyrosine site 188 (P25205),liganded tyrosine site 304 (Q9ULV4)
"O=C(NC1CCCCC1)c1ccc(S(=O)(=O)n2cncn2)cc1 [HHS-0301, 4-((1H-1,2,4-triazol-1-yl)sulfonyl)-N-cyclohexylbenzamide]",HHS0301.Y (tyrosine sites that showed >80% reductions (SR >5) in probe labeling in cells treated with compounds (liganded sites)),HHS0301.Y (tyrosine sites that showed >80% reductions (SR >5) in probe labeling in cells treated with compounds (liganded sites)),–,–,–
"O=C(c1ccc(S(=O)(=O)n2cncn2)cc1)N1CCC(c2ccccc2)CC1 [HHS-0701, (4-((1H-1,2,4-triazol-1-yl)sulfonyl)phenyl)(4-phenylpiperidin-1-yl)methanone]",–,–,HHS0701.Y (tyrosine sites that showed >80% reductions (SR >5) in probe labeling in cells treated with compounds (liganded sites)),HHS0701.Y (tyrosine sites that showed >80% reductions (SR >5) in probe labeling in cells treated with compounds (liganded sites)),HHS0701.Y (tyrosine sites that showed >80% reductions (SR >5) in probe labeling in cells treated with compounds (liganded sites))
